Source: US11976069B2, “Inhibitors of histone deacetylase useful for the treatment or prevention of HIV infection” (Merck Sharp & Dohme LLC, priority 2019, dated 2024)
Like-named read-outs stand apart in the source and are kept apart here.

How the values were obtained:
[1] = target: T1, HDAC1 (Homo sapiens, UniProt Q13547); experiment: HDAC1 inhibition, modified Fluor-de-Lys assay; assay type: biochemical; details: 3 h pre-incubation, 0.3 nM enzyme, 20 μM substrate BML-KI104; read-out: HDAC-1 IC50
T1 construct: FLAG (C)
T1 sequence (Q13547 whole entry): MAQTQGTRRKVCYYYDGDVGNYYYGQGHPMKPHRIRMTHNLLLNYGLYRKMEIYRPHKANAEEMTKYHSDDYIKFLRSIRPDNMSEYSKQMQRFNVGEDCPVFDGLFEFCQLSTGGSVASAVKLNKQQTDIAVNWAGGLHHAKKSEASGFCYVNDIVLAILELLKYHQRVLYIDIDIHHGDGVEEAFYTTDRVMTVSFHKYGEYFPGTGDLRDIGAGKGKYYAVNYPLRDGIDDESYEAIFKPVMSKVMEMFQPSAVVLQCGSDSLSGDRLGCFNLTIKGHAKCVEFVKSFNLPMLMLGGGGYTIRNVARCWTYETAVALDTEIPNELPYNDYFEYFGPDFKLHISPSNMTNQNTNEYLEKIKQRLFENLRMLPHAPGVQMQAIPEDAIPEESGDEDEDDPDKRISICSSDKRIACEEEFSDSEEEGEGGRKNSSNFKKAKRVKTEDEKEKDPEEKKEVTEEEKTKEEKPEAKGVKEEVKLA
Experimental: (§1) Human HDAC Enzyme Inhibitor FLUOR-DE-LYS Assay Materials
(§2) Recombinant human HDAC1, HDAC2, and HDAC3/SMRT heterodimer were prepared by Merck Research Laboratories. […] The eluted protein was then passed over an anti-HDAC1 immunoaffinity column to remove any complexes containing HDAC1. […]
(§3) The histone deacetylase activities of HDAC1, HDAC2, HDAC3, HDAC6, and HDAC8 were measured in modified Fluor-de-Lys assays in 384-well format. In this assay, HDAC enzymes are initially incubated with an ε-acetyl (or -trifluoroacetyl)-L-lysine-containing substrate with a C-terminal amide having aminomethylcoumarin as the amine component. HDACs cleave the ε-acetyl group, rendering the resulting product susceptible to AMC cleavage by trypsin. The released AMC is then detected by its fluorescence.
(§4) The HDAC 1, 2 assays employed buffer A, which contained 20 mM HEPES, pH 8.0, 1 mM MgCl2, 137 mM NaCl, 2.7 mM KCl, 0.05% BSA. The HDAC3/SMRT assay employed buffer B, consisting of 20 mM HEPES, pH 8.0, 1 mM MgCl2, 50 mM NaCl, 2.7 mM KCl, 0.05% BSA, 0.005% Tween 20, and 10 μM IP4. The HDAC6 assay employed buffer C, consisting of 20 mM HEPES, pH 8.0, 1 mM MgCl2, 137 mM NaCl, 2.7 mM KCl, 0.5 mM TCEP (Calbiochem) and 0.05% BSA. The HDAC8 assay employed buffer D, consisting of 20 mM HEPES, pH 8.0, 1 mM MgCl2, 100 mM NaCl, 20 mM KCl, 0.1% n-octyl-β-D-glucoside (Anatrace, Maumee, Ohio) and 0.05% BSA. All steps were performed at room temperature (23° C.). The assay was performed by pre-incubating serial dilutions of test compounds with the target HDAC prior to initiation with substrate. Each compound was titrated in a 10-point dose response, using a 1:3 fold dilution scheme, with 0.15 ul of solution added by ECHO555 to the plate, followed by the addition of 20 μl of the appropriate HDAC isoform diluted in appropriate assay buffer. […] Final conditions used for each assay were: 1. HDAC 1, 0.3 nM total enzyme, 20 μM substrate BML-KI104; 2. HDAC 2, 1.5 nM total enzyme, 40 μM substrate BML-KI104; 3. HDAC 3/SMRT, 0.3 nM total enzyme, 20 μM substrate BML-KI104; 4. HDAC 6, 1.3 nM total enzyme, 2.5 μM substrate BML-KI104; 5. HDAC 8, 1.3 nM total enzyme, 200 μM substrate BML-KI178; the final high dose of test compound was 30 μM. For potent compounds, 900 nM was used as the final high dose. The reactions were stopped and developed by addition of 30 ul of HDAC developer solution containing a saturating level of HDAC inhibitor as follows: 1.

[2] = target: T2, HDAC2 (Homo sapiens, UniProt Q92769); experiment: HDAC2 inhibition, modified Fluor-de-Lys assay; assay type: biochemical; details: 3 h pre-incubation, 40 μM substrate BML-KI104, read-out: HDAC-2 IC50
T2 construct: Full length human HDAC2-FLAG was expressed in baculovirus infected Sf9 cells; FLAG (C); host or cells: baculovirus infected Sf9 cells
T2 sequence (Q92769 whole entry): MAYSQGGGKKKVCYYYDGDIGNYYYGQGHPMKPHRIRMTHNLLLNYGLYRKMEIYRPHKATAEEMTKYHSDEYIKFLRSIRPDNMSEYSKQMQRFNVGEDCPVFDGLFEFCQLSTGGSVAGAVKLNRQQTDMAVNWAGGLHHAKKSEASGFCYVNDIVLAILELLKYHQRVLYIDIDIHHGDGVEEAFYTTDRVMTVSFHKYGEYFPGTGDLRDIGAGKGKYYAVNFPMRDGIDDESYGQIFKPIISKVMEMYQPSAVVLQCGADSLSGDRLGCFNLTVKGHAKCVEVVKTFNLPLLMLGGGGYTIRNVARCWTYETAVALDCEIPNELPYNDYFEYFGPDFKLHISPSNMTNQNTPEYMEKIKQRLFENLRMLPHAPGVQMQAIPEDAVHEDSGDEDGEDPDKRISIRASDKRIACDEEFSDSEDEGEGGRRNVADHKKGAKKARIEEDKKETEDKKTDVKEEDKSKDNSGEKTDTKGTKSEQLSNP
Experimental: as §1, §2, §3, §4

[3] = target: T3, HDAC3/SMRT heterodimer (Homo sapiens, UniProt O15379); experiment: HDAC3/SMRT inhibition, modified Fluor-de-Lys assay; assay type: biochemical; details: 3 h pre-incubation, 0.3 nM enzyme, 20 μM substrate BML-KI104, read-out: HDAC-3 IC50
T3 construct: FLAG (C)
T3 sequence (O15379 whole entry): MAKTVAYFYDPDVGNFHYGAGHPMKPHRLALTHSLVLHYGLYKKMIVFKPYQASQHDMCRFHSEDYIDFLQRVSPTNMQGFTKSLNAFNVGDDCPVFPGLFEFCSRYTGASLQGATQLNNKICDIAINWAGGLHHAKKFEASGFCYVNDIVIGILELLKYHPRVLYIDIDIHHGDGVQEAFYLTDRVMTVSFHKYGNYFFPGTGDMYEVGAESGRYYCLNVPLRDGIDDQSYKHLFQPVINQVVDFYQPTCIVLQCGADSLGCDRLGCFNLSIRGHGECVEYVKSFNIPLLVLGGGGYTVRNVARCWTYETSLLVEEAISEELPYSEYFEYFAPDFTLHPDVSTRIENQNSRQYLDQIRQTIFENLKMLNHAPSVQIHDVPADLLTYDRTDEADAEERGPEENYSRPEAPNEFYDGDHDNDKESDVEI
T3 sequence (Q9Y618 1-899 partner limits assumed): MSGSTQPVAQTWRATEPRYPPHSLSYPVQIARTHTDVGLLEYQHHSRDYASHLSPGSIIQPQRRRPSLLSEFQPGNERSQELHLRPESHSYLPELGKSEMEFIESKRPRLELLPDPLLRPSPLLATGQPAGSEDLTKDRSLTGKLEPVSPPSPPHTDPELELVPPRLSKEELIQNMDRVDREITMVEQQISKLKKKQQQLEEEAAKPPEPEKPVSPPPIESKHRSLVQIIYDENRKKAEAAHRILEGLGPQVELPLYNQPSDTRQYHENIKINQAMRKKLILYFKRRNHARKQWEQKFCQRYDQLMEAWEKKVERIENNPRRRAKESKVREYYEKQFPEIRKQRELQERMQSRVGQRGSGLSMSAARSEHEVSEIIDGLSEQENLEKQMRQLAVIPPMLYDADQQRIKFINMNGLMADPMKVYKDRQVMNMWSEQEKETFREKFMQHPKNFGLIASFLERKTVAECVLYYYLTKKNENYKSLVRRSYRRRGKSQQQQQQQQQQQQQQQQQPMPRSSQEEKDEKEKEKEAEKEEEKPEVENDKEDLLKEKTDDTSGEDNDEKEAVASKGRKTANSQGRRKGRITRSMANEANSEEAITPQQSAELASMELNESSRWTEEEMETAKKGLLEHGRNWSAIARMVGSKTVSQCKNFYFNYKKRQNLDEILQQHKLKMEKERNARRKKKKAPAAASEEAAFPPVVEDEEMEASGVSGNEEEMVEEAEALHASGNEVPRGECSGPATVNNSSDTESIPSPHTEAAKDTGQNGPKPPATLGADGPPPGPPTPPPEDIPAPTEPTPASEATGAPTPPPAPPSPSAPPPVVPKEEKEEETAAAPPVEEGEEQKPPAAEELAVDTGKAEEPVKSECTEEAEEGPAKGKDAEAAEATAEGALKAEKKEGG
Experimental: as §1, §2, §3, §4

[4] = tested on: KARN cells (Jurkat 2C4); experiment: KARN assay (luciferase induction); assay type: cell-based; details: Jurkat, ~20 hr, 100% induction = 2 μM SAHA
Experimental: KARN cells (Jurkat 2C4) were licensed from the laboratory of Dr. John Kam, Case Western Reserve University, School of Medicine. […] An atmosphere of 5% CO2 and 90% humidity was used for all culture work. Cells were split and reseeded into T175 flasks at a density of 0.2×10^6 cells/ml, in 40 ml of media, every 3-4 days.
Day 1: After the 3-4 day growth period, the cells were transferred from the T175 flask to a 50 ml conical tube and gently pelleted at 1000 rpm for 5 minutes. […] These flasks were returned to the incubator.
Day 2: Cell Preparation: The next day, the cells were transferred from each T175 flask to an individual 50 ml conical tube and gently pelleted at 1000 rpm for 5 minutes. The cells were gently resuspended in assay media (30 ml) and pelleted again. […] The cells were counted using the ViCell (Beckman Coulter, Brea, Calif.) and diluted as necessary. A Multidrop (Combi, Thermo Scientific, Waltham, Mass.) with a sterile head was used to seed the cells into the wells of a 384-well solid black plate with lid (Perkin Elmer, Waltham, Mass., catalog number 6007660) at 4000 cells/30 μl/well for the 5% NHS assay media and 6000 cells/30 μl/well for 0.1% NHS assay. The plates were covered and returned to the incubator prior to compound addition.
Compound Preparation: Solutions of control inhibitor suberoylanilide hydroxamic acid (SAHA; Sigma, catalog number SML0061) and test compounds in 100% DMSO were titrated into 384-well polypropylene plates (Labcyte, San Jose, Calif., catalog number P-05525) using a 20-point dose response and 2-fold dilutions. The reference compounds, DMSO and SAHA were then added to the compound plate. Using the Access system (Labcyte), 120 nl of these inhibitor and control solutions were added to the individual wells of the plates containing the cells, and the plates were then returned to the incubator for ˜20 hr (range from 18-24 hr). The final high concentration for SAHA and the test compounds in the assays was 40 μM. The final DMSO concentration in all wells was 0.4%. The minimal induction reference compound used was DMSO and the maximal induction reference compound used was SAHA (2 μM final concentration in the assay).
Day 3: The luciferase detection reagent was prepared by transferring the contents of one bottle of Steady-Glo buffer to one bottle of Steady-Glo substrate (Steady-Glo Luciferase Assay System, Promega, Madison, […]., catalog number E2520), followed by gently mixing until the substrate was thoroughly dissolved and the solution was equilibrated to room temperature. The cell culture assay plates were removed from the incubator and brought to room temperature (15 min). The Steady-Glo Reagent was added to the plates (30 μl/well), which were then covered with a black lid and incubated for 10 minutes at room temperature. The plates were then read for luminescence on an Envision (Perkin Elmer) using the ultrasensitive mode (US LUM), […] and 384-well aperture. Luminescence counts in the DMSO reference wells were considered as 0% induction, while those in the 2 μM SAHA reference wells were considered as 100% induction. Dose response curves were plotted as test compound concentration (X-axis) vs. percent activation (Y-axis) using a 4-parameter fit based on the Levenberg-Marquardt algorithm.

[5] = read-out: Karn EC50 with 0.1% NHS, 0.1% normal human serum
[6] = read-out: Karn EC50 with 5% NHS, 5% normal human serum

CCC(=O)CCCCC[C@@H]1NC(=O)[C@H]2CC23CCN(CCCCCCCCn2ccc4cc(ccc4c2=O)-c2cnc1[nH]2)CC3 [Compound 1, (3S,6S)-6-(6-oxooctyl)-5,8,18,27,34-pentaazahexacyclo[25.2.2.1˜7,10˜.1˜11,15˜.1˜14,18˜.0˜1,3˜]tetratriaconta-7,9,11(33),12,14,16-hexaene-4,32-dione]
IC50 [1]: 0.2 nM
IC50 ([2]; […] enzyme): 0.43 nM
IC50 [3]: 0.061 nM
EC50 [4, 5]: 14 nM
EC50 [4, 6]: 16 nM

CCC(=O)CCCCC[C@@H]1NC(=O)[C@H]2CC23CCN(CCCCN2C4CCC2c2c(cccc24)-c2cnc1[nH]2)CC3 (stereo partly drawn) [Compound 2, (11S,4S)-4-(6-oxooctyl)-61,62,63,64-tetrahydro-51H-3-aza-6(5,9)-1,4-epiminonaphthalena-11(4,1)-piperidina-5(2,5)-imidazola-1(1,2)-cyclopropanaundecaphan-2-one]
IC50 [1]: 45 nM
IC50 ([2]; 1.5 nM enzyme): 176 nM
IC50 [3]: 24 nM
EC50 [4, 5]: 6270 nM
EC50 [4, 6]: 9060 nM

CCC(=O)CCCCC[C@@H]1NC(=O)[C@H]2CC23CCN(C/C=C/CN2C4CCC2c2cc(ccc24)-c2cnc1[nH]2)CC3 (stereo partly drawn) [Compound 3, (1^1S,4S,E)-4-(6-oxooctyl)-6^1,6^2,6^3,6^4-tetrahydro-5^1H-3-aza-6(6,9)-1,4-epiminonaphthalena-11(4,1)-piperidina-5(2,5)-imidazola-1(1,2)-cyclopropanaundecaphan-8-en-2-one]
IC50 [1]: 2.7 nM
IC50 ([2]; 1.5 nM enzyme): 7 nM
IC50 [3]: 0.86 nM
EC50 [4, 5]: 73 nM
EC50 [4, 6]: 76 nM

CCC(=O)CCCCC[C@@H]1NC(=O)[C@H]2CC23CCN(CCOCCn2ccc4cc(ccc4c2=O)-c2cnc1[nH]2)CC3 [Compound 4, (1^1S,4S)-4-(6-oxooctyl)-6^1,6^2-dihydro-5^1H-9-oxa-3-aza-6(6,2)-isoquinolina-12(4,1)-piperidina-5(2,5)-imidazola-1(1,2)-cyclopropanadodecaphane-6^1,2-dione]
IC50 [1]: 0.61 nM
IC50 ([2]; […] enzyme): 35 nM
IC50 [3]: 7.1 nM
EC50 [4, 5]: > 40000 nM
EC50 [4, 6]: > 40000 nM

CCC(=O)CCCCC[C@@H]1NC(=O)CN(C)CCCCOCCCCn2ccc3cc(ccc3c2=O)-c2cnc1[nH]2 [Compound 6, (3S)-7-methyl-3-(6-oxooctyl)-11,12-dihydro-21H-12-oxa-4,7-diaza-1(6,2)-isoquinolina-2(5,2)-imidazolacyclohexadecaphane-11,5-dione]
IC50 [1]: 28 nM
IC50 ([2]; […] enzyme): 595 nM
IC50 [3]: 248 nM
EC50 [4, 5]: 2500 nM
EC50 [4, 6]: 3510 nM

CCC(=O)CCCCC[C@@H]1NC(=O)[C@H]2CC23CCN(CCCCCOc2ccc4cc(ccc4n2)-c2cnc1o2)CC3 [Compound 9]
IC50 [1]: 24 nM
IC50 ([2]; […] enzyme): 335 nM
IC50 [3]: 150 nM
EC50 [4, 5]: > 40000 nM
EC50 [4, 6]: > 40000 nM

CCC(=O)CCCCC[C@@H]1NC(=O)[C@H]2CC23CCN(CCCCN2C4CCC2c2cc(ccc24)-c2cnc1[nH]2)CC3 (stereo partly drawn) [Compound 10, (3S,6S)-6-(6-oxooctyl)-5,8,20,25,31-pentaazaheptacyclo[23.2.2.1˜7,10˜.1˜11,15˜.0˜1,3˜.0˜14,19˜0.0˜16,20˜]hentriaconta-7,9,11(30),12,14-pentaen-4-one]
IC50 [1]: 19 nM
IC50 ([2]; 1.5 nM enzyme): 148 nM
IC50 [3]: 49 nM
EC50 [4, 5]: 844 nM
EC50 [4, 6]: 867 nM

CCC(=O)CCCCC[C@@H]1NC(=O)[C@H]2CC23CCN(CCCOCCn2ccc4cc(ccc4c2=O)-c2cnc1[nH]2)CC3 [Compound 11, (3S,6S)-6-(6-oxooctyl)-21-oxa-5,8,18,25,32-pentaazahexacyclo[23.2.2.1˜7,10˜0.1˜11,15˜0.1˜14,18˜0.0˜1,3˜] dotriaconta-7,9,11(31),12,14,16-hexaene-4,30-dione]
IC50 [1]: 0.11 nM
IC50 ([2]; […] enzyme): 22 nM
IC50 [3]: 2.6 nM
EC50 [4, 5]: > 40000 nM
EC50 [4, 6]: > 40000 nM

CCC(=O)CCCCC[C@H](NC(=O)[C@H]1CC12CCN(CC)CC2)c1[nH]c2nc1C(=O)NCCCCCc1cccc-2c1 [Compound 13, (S)-6-ethyl-N-((S)-7-oxo-1-((Z)-9-oxo-11H-8-aza-1(2,4)-imidazola-2(1,3)-benzenacyclononaphane-15-yl)nonyl)-6-azaspiro[2.5]octane-1-carboxamide]
IC50 [1]: 109 nM
IC50 [3]: 103 nM
EC50 [4, 5]: > 40000 nM
EC50 [4, 6]: 12000 nM
